Experimental data: patent US4442031A, “Immunopotentiating peptides” (Hoffmann-La Roche Inc., priority 1983, dated 1984)
Where no end group is shown, it is not given here.

How the values were obtained:
[1] = system: Listeria monocytogenes EGD; test: Protection against Listeria monocytogenes infection in 5-FU immunosuppressed mice; format: in vivo; settings: for Survivors at Day 15 after infection: Table 8, i.p., 5-FU immunosuppressed mice, control 2/10
Experimental: (§1) Normal mice (female ddY mice, 6 weeks old) were highly tolerant to infection with Candida albicans ATCC 10231 at relatively low dose (1-2×10^5 cells, iv.). However, when pretreated daily for ten times with 5-FU (25 mg/kg/day, ip.), the mice were susceptible to infection as shown in Table 6. […] Compound A was also shown to be active against infection with Pseudomonas aeruginosa 5E81-1 and Listeria monocytogenes EGD in the immunosuppressed mice (see Tables 7 and 8).

P388 leukemia = test: Protective activity against P388 leukemia growth in 5-FU immunosuppressed mice; format: in vivo; settings: for Mean Survival days (days ± S.D.): CDF1 mice, 5-FU +, P388 +, 5-FU + saline 4.1; for survival days (in words): daily treatment in addition to 5-FU, 8 times before and 6 times after the transplant
Experimental: The treatment with cytostatic agents often decreases immunocompetence and consequently increases incidence of metastasis of tumor in cancer patients. […] In the experiment shown in Table 10, male CDF1 mice (6 week old) were treated daily for 8 times with or without 5-FU (28 mg/kg/day ip.) and then transplanted subcutaneously with P388 leukemic cells (3×10^5) into footpad 24 hours later. When pretreated with 5-FU, mice died very quickly at 4 days, while normal mice survived about 23 days after the transplant. […] Thymosin α1 and compound A may improve the immunodefense system against metastatic tumor growth in cancer patients who are receiving immunosuppressive chemotherapy. In combination with thymosin α1 or compound A, more extensive cancer chemotherapy for a longer duration may be possible.
^(1) CDF1 mice were pretreated daily for 8 times from Day 8 to
with 5FU (28 mg/kg/day, ip.).
^(2) Thymosin α1 or Compound A were administered daily for
14 times from Day 8 to 5 by ip. route.
^(3) P388 leukemic cells (3 × 10^5) were inoculated into
^(4) Survival days after the inoculation of the leukemic cells.

[2] = system: Pseudomonas aeruginosa 5E81-1; test: Protection against Pseudomonas aeruginosa infection in 5-FU immunosuppressed mice; format: in vivo; settings: for Survivors at Day 15 after infection: Table 7, i.p., 5-FU immunosuppressed mice, control 0/30
Experimental: as §1

[3] = system: Listeria monocytogenes EGD; test: Growth of Listeria monocytogenes in liver of P388 tumor-bearing mice; format: in vivo; settings: for Growth of Bacteria (log10 /liver): Tumor-bearing CDF1 mice, i.p., seven times before infection, 3 days after infection, control 7.1
Text: The immunocompetence of tumor-bearing mice is known to be frequently deficient. This is illustrated by the fact that Listeria monocytogenes EGD grew considerably in tumor-bearing mice as compared to normal mice (see Table 9). Male CDF1 mice (6 weeks old) transplanted with P388 leukemia (3×10^5 cells, footpad) were infected with Listeria monocytogenes (2×10^3 cells, iv.) 7 days after the transplant. Three days thereafter the number of the bacteria grown in liver was counted.

[4] = Restoration of thymus weight decreased by 5-FU injection; format: in vivo, mice; settings: for Av. thymus weight mg: 8 days after 5-FU, control 39.4, 5-FU alone 23.4; for Av. thymus weight %: % of control; for Restoration Activity(%): thymus weight
Experimental: It is known that anticancer drugs suppress immunological functions by affecting immunocytes. The thymus gland, which is essential for differentiation, maturation and supply to T-cells responsible for immunological reactions, decreases markedly in weight after injection of 5-FU. […] FIfty μg/kg of Compound A administered orally was as effective as 5 μg/kg of thymosin α1 injected intraperitoneally, when the thymus weight was measured immediately after the DTH measurement at 8 days after the 5-FU injection (see Table 5).
*Seven mice per group received the test compound one day before,
concurrently with, and 1 and 2 days after 5FU injection i.p. (100 mg/kg).
The mice were injected CRBC for The DTH assay at 3 and 7 days after the
The thymus weight was measured at 8 days after the 5FU injection.

[5] = system: delayed-type hypersensitivity (DTH); test: Restoration of delayed-type hypersensitivity (DTH) decreased by 5-FU in BDF1 mice; format: in vivo; settings: for DTH response %: % of control
Experimental: A poor prognosis is often observed in cancer patients with impaired immune response. Impaired immune response can be caused by the cancer itself, by chemotherapeutic agents, or by radiotherapy. Thus, therapeutic agents which restore impaired immune response in cancer patients are expected to play an important role in combination therapy. The restoration activity of the compounds of the invention on impaired cell-mediated immunity was determined by measuring the enhancement of delayed-type hypersensitivity (DTH), which was decreased to a great extent in mice treated with 5-fluorouracil (5-FU).
Female BDF1 mice (20-22 g, 11-12 weeks old) received (i.p. or p.o.) the compound to be tested on consecutive days one day before, concurrently with and 1 and 2 days after the 5-FU treatment. For DTH measurement, 10^8 chicken red blood cells (CRBC) were injected i.p. (or s.c. into the left hind footpad) and challenged s.c. into the right hind footpad at 3 and 7 days after the 5-FU treatment, respectively. Restoration activity was calculated by the following formula from the DTH response observed in the control group, 5-FU treated group treatment and the Test group treated both with 5-FU and the compound of the invention. Restoration activity was calculated by the formula: [formula]

[6] = Table 2, 5-FU plus 0.05 μg/kg/day, i.p.
[7] = Table 2, 5-FU plus 0.5 μg/kg/day, i.p.
[8] = Table 2, 5-FU plus 0.5 μg/kg/day, i.p., control 10.3, 5-FU alone 5.7
[9] = Table 2, 5-FU plus 5.0 μg/kg/day, i.p.
[10] = Table 2, 5-FU plus 5.0 μg/kg/day, i.p., control 10.3, 5-FU alone 5.7
[11] = Table 3, second experiment, 5-FU plus 0.5 μg/kg/day, i.p.
[12] = Table 4, 5-FU plus 0.5 μg/kg/day p.o.
[13] = Table 4, 5-FU plus 5.0 μg/kg/day p.o.
[14] = Table 4, 5-FU plus 50.0 μg/kg/day p.o.
[15] = Table 3, first experiment, 5-FU plus 5.0 μg/kg/day, i.p.
[16] = Table 4, 5-FU plus 5.0 μg/kg/day i.p.

Substance: KKEVVE [Compound A, L-Lysyl-L-lysyl-L-glutamyl-L-valyl-L-valyl-L-glutamic acid]
- Survivors at Day 15 after infection ([1]; 0.04 μg/kg/day): 8/10
- Survivors at Day 15 after infection ([1]; 0.4 μg/kg/day): 6/10
- Survivors at Day 15 after infection ([1]; 4 μg/kg/day): 6/10
- activity against infection (in words) ([1]; immunosuppressed mice): active
- Mean Survival days (days ± S.D.) (P388 leukemia; 0.4 μg/kg/day ip. 14 times): 22.3 ± 2.8 days
- Mean Survival days (days ± S.D.) (P388 leukemia; 4 μg/kg/day ip. 14 times): 23.7 ± 2.9 days
- survival days (in words) (P388 leukemia): increased the survival days to the level similar to that obtained in normal mice
- Survivors at Day 15 after infection ([2]; 0.04 μg/kg/day): 5/20
- Survivors at Day 15 after infection ([2]; 0.4 μg/kg/day): 12/30
- Survivors at Day 15 after infection ([2]; 4 μg/kg/day): 7/30
- activity against infection (in words) ([2]; immunosuppressed mice): active
- Growth of Bacteria (log10 /liver) ([3]; 0.4 μg/kg/day): 6.0 log10 /liver
- Growth of Bacteria (log10 /liver) ([3]; 4 μg/kg/day): 5.7 log10 /liver
- growth of the bacteria in liver (in words) ([3]; tumor-bearing mice pretreated daily for seven times before infection): growth of the bacteria was suppressed
- restoration of thymus weight (in words) ([4]; 50 μg/kg orally, one day before, concurrently with, and 1 and 2 days after 5-FU (100 mg/kg)): restore the decreased thymus weight
- Av. thymus weight mg ([4]; 5-FU (100 mg/kg i.p.) plus 5.0 μg/kg/day p.o.): 23.0 ± 1.6 mg
- Av. thymus weight mg ([4]; 5-FU (100 mg/kg i.p.) plus 50.0 μg/kg/day p.o.): 26.6 ± 1.0 mg
- Av. thymus weight % ([4]; 5-FU plus 5.0 μg/kg/day p.o.): 58.4%
- Av. thymus weight % ([4]; 5-FU plus 50.0 μg/kg/day p.o.): 67.5%
- Restoration Activity(%) ([4]; 5-FU plus 50.0 μg/kg/day p.o.): 20.0%
- Restoration Activity(%) [5, 6]: 34.4%
- DTH response % [5, 6]: 70.7%
- DTH response av. ± S.E. (0.1 mm) ([5]; Table 2, 5-FU plus 0.05 μg/kg/day, i.p., control 10.3, 5-FU alone 5.7): 7.3 ± 0.9 0.1 mm
- Restoration Activity(%) [5, 7]: 66.6%
- DTH response % [5, 7]: 84.8%
- DTH response av. ± S.E. (0.1 mm) [5, 8]: 8.7 ± 1.2 0.1 mm
- Restoration Activity(%) [5, 9]: 56.6%
- DTH response % [5, 9]: 80.7%
- DTH response av. ± S.E. (0.1 mm) [5, 10]: 8.3 ± 0.8 0.1 mm
- DTH response av. ± S.E. (0.1 mm) ([5]; Table 3, second experiment (control 15.1, 5-FU alone 8.1), 5-FU plus 0.5 μg/kg/day, i.p.): 10.8 ± 0.8 0.1 mm
- Restoration Activity(%) [5, 11]: 39.1%
- DTH response % [5, 11]: 71.6%
- DTH response av. ± S.E. (0.1 mm) ([5]; Table 4 (control 7.7, 5-FU alone 5.6), 5-FU plus 0.5 μg/kg/day p.o.): 5.4 ± 0.9 0.1 mm
- DTH response av. ± S.E. (0.1 mm) ([5]; Table 4 (control 7.7, 5-FU alone 5.6), 5-FU plus 5.0 μg/kg/day p.o.): 5.9 ± 1.0 0.1 mm
- DTH response av. ± S.E. (0.1 mm) ([5]; Table 4 (control 7.7, 5-FU alone 5.6), 5-FU plus 50.0 μg/kg/day p.o.): 8.7 ± 1.2 0.1 mm
- Restoration Activity(%) [5, 12]: 0%
- DTH response % [5, 12]: 70.1%
- Restoration Activity(%) [5, 13]: 14.3%
- DTH response % [5, 13]: 76.6%
- Restoration Activity(%) [5, 14]: 147.6%
- DTH response % [5, 14]: 113%
- DTH restoration activity (in words) ([5]; administered orally, Table 4): active when administered orally
- DTH restoration activity (in words) ([5]; i.p., Tables 2 and 3): equal or in some instances, greater activity than did thymosin α1 at lower doses

Substance: thymosin α1 (SDAAVDTSSEITTKDLKEKKEVVEEAEN; ends and bridges not checked; UniProt P01252 2-29, looked up) [peptide isolated from bovine thymus, stimulates maturation, differentiation and function of T cells; U.S. Pat. No. 4,079,127, reference compound]
- Survivors at Day 15 after infection ([1]; 4 μg/kg/day): 7/10
- Survivors at Day 15 after infection ([1]; 40 μg/kg/day): 5/10
- Mean Survival days (days ± S.D.) (P388 leukemia; 4 μg/kg/day ip. 14 times): 17.6 ± 8.2 days
- Mean Survival days (days ± S.D.) (P388 leukemia; 40 μg/kg/day ip. 14 times): 20.7 ± 2.8 days
- survival days (in words) (P388 leukemia): increased the survival days to the level similar to that obtained in normal mice
- Survivors at Day 15 after infection ([2]; 0.4 μg/kg/day): 7/20
- Survivors at Day 15 after infection ([2]; 4 μg/kg/day): 12/30
- Survivors at Day 15 after infection ([2]; 40 μg/kg/day): 16/30
- Growth of Bacteria (log10 /liver) ([3]; 4 μg/kg/day): 5.0 log10 /liver
- Growth of Bacteria (log10 /liver) ([3]; 40 μg/kg/day): 5.3 log10 /liver
- Av. thymus weight mg ([4]; 5-FU (100 mg/kg i.p.) plus 0.5 μg/kg/day i.p.): 24.9 ± 1.7 mg
- Av. thymus weight mg ([4]; 5-FU (100 mg/kg i.p.) plus 5.0 μg/kg/day i.p.): 26.7 ± 1.1 mg
- Av. thymus weight % ([4]; 5-FU plus 0.5 μg/kg/day i.p.): 63.2%
- Av. thymus weight % ([4]; 5-FU plus 5.0 μg/kg/day i.p.): 67.8%
- Restoration Activity(%) ([4]; 5-FU plus 0.5 μg/kg/day i.p.): 9.4%
- Restoration Activity(%) ([4]; 5-FU plus 5.0 μg/kg/day i.p.): 20.6%
- Restoration Activity(%) [5, 7]: 1.3%
- DTH response % [5, 7]: 56.0%
- DTH response av. ± S.E. (0.1 mm) [5, 8]: 5.8 ± 1.1 0.1 mm
- Restoration Activity(%) [5, 9]: 50.3%
- DTH response % [5, 9]: 77.8%
- DTH response av. ± S.E. (0.1 mm) [5, 10]: 8.0 ± 1.2 0.1 mm
- DTH response av. ± S.E. (0.1 mm) ([5]; Table 3, first experiment (control 8.5, 5-FU alone 4.8), 5-FU plus 5.0 μg/kg/day, i.p.): 7.3 ± 0.8 0.1 mm
- Restoration Activity(%) [5, 15]: 68.7%
- DTH response % [5, 15]: 86.3%
- DTH response av. ± S.E. (0.1 mm) ([5]; Table 4 (control 7.7, 5-FU alone 5.6), 5-FU plus 0.5 μg/kg/day i.p.): 5.4 ± 1.2 0.1 mm
- DTH response av. ± S.E. (0.1 mm) ([5]; Table 4 (control 7.7, 5-FU alone 5.6), 5-FU plus 5.0 μg/kg/day i.p.): 7.3 ± 0.8 0.1 mm
- DTH response % ([5]; Table 4, 5-FU plus 0.5 μg/kg/day i.p.): 70.1%
- Restoration Activity(%) [5, 16]: 81.0%
- DTH response % [5, 16]: 94.8%
